Assay results taken from ChEMBL document CHEMBL1201862, “PubChem BioAssay data set” (2004).
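Five concentrations, 48 hours, 96-well plates. GI50 = concentration required for 50% inhibition of growth.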 Calls of active or inactive are those of the source. Cut-off read from the data, not from the text of the source: active = GI50 up to about 1.1 µM and inactive = higher. Where a SMILES comes first, the peptide text is derived from it. [ ]: non-standard residue; d: D form. The star is where a group is joined. ξ: configuration not given here. ξNMe2Val = CC(C)C(C(=O)*)N(C)C; NMeV = CN[CH](C(=O)O)C(C)C; NHBn = c1ccc(CN*)cc1; CH2Cl = ClC*

Experiments:
Assay in all cases: NCI anticancer screen, dose series, 48 h
CCRF-CEM = system: CCRF-CEM
UO-31 = system: UO-31
NCI-H23 = system: NCI-H23
SK-MEL-28 = system: SK-MEL-28
SF-539 = system: SF-539
HL-60 = system: HL-60
M14 = system: M14
UACC-62 = system: UACC-62
OVCAR-8 = system: OVCAR-8
HCC 2998 = system: HCC 2998
PC-3 = system: PC-3
IGROV-1 = system: IGROV-1
BT-549 = system: BT-549
NCI-H460 = system: NCI-H460
KM12 = system: KM12
SK-OV-3 = system: SK-OV-3
LOX IMVI = system: LOX IMVI
CAKI-1 = system: CAKI-1
UACC-257 = system: UACC-257

## COc1cc(C2c3cc4c(cc3OC(NN)C2C)OCO4)cc(OC)c1OC (centres undefined)
CCRF-CEM
  GI50: 0.405 µM (active)
UO-31
  GI50: 6.85 µM (inactive)
NCI-H23
  GI50: 1.11 µM (active)
SK-MEL-28
  GI50: 50.8 µM (inactive)
SF-539
  GI50: 0.247 µM (active)
HL-60
  GI50: 0.323 µM (active)
M14
  GI50: 0.483 µM (active)
UACC-62
  GI50: 0.495 µM (active)
OVCAR-8
  GI50: 1.93 µM (inactive)
HCC 2998
  GI50: 0.536 µM (active)
PC-3
  GI50: 0.556 µM (active)
IGROV-1
  GI50: 1.46 µM (inactive)
BT-549
  GI50: 9.12 µM (inactive)
NCI-H460
  GI50: 0.489 µM (active)
KM12
  GI50: 0.466 µM (active)
SK-OV-3
  GI50: 1.38 µM (inactive)
LOX IMVI
  GI50: 0.458 µM (active)
CAKI-1
  GI50: 3.36 µM (inactive)

## O=C(N/N=C/c1c(-c2ccccc2)no[n+]1[O-])N1CCOCC1
CCRF-CEM
  GI50: > 100 µM (inactive)
UO-31
  GI50: > 100 µM (inactive)
NCI-H23
  GI50: > 100 µM (inactive)
SK-MEL-28
  GI50: > 100 µM (inactive)
SF-539
  GI50: > 100 µM (inactive)
HL-60
  GI50: 23.3 µM (inactive)
M14
  GI50: > 100 µM (inactive)
UACC-62
  GI50: > 100 µM (inactive)
OVCAR-8
  GI50: > 100 µM (inactive)
UACC-257
  GI50: > 100 µM (inactive)
HCC 2998
  GI50: > 100 µM (inactive)
PC-3
  GI50: > 100 µM (inactive)
IGROV-1
  GI50: > 100 µM (inactive)
BT-549
  GI50: > 100 µM (inactive)
NCI-H460
  GI50: > 100 µM (inactive)
KM12
  GI50: > 100 µM (inactive)
SK-OV-3
  GI50: > 100 µM (inactive)
LOX IMVI
  GI50: > 100 µM (inactive)
CAKI-1
  GI50: > 100 µM (inactive)

## Clc1ncnc2c1nc(C#Cc1ccccc1)n2C1CCCCO1 (centres undefined)
CCRF-CEM
  GI50: 2.33 µM (inactive)
UO-31
  GI50: 1.93 µM (inactive)
NCI-H23
  GI50: 1.99 µM (inactive)
SK-MEL-28
  GI50: 2.21 µM (inactive)
SF-539
  GI50: 1.91 µM (inactive)
HL-60
  GI50: 2.59 µM (inactive)
M14
  GI50: 2.14 µM (inactive)
UACC-62
  GI50: 2.42 µM (inactive)
OVCAR-8
  GI50: 3.3 µM (inactive)
UACC-257
  GI50: 2.61 µM (inactive)
HCC 2998
  GI50: 2.1 µM (inactive)
PC-3
  GI50: 3.27 µM (inactive)
BT-549
  GI50: 1.9 µM (inactive)
NCI-H460
  GI50: 3.14 µM (inactive)
KM12
  GI50: 1.63 µM (inactive)
SK-OV-3
  GI50: 7.67 µM (inactive)
LOX IMVI
  GI50: 2.02 µM (inactive)
CAKI-1
  GI50: 1.97 µM (inactive)

## CSC(=S)Nc1cc(C)cc(C)n1
CCRF-CEM
  GI50: > 31.6 µM (inactive)
UO-31
  GI50: > 31.6 µM (inactive)
NCI-H23
  GI50: > 31.6 µM (inactive)
SK-MEL-28
  GI50: > 31.6 µM (inactive)
SF-539
  GI50: > 100 µM (inactive)
HL-60
  GI50: > 31.6 µM (inactive)
M14
  GI50: > 31.6 µM (inactive)
UACC-62
  GI50: > 31.6 µM (inactive)
OVCAR-8
  GI50: > 31.6 µM (inactive)
UACC-257
  GI50: > 31.6 µM (inactive)
HCC 2998
  GI50: > 31.6 µM (inactive)
PC-3
  GI50: > 31.6 µM (inactive)
IGROV-1
  GI50: > 100 µM (inactive)
BT-549
  GI50: > 100 µM (inactive)
NCI-H460
  GI50: > 31.6 µM (inactive)
KM12
  GI50: > 31.6 µM (inactive)
SK-OV-3
  GI50: > 31.6 µM (inactive)
LOX IMVI
  GI50: > 31.6 µM (inactive)
CAKI-1
  GI50: > 31.6 µM (inactive)

## CC(=O)NC(CC(C)C)C(=O)NC(Cc1ccccc1)C(=O)CCl (stereo not drawn) (Ac-Leu-Phe-CH2Cl; configuration not given here)
CCRF-CEM
  GI50: 1.32 µM (inactive)
UO-31
  GI50: 14.6 µM (inactive)
NCI-H23
  GI50: 13.1 µM (inactive)
SK-MEL-28
  GI50: 10.6 µM (inactive)
SF-539
  GI50: 18.1 µM (inactive)
HL-60
  GI50: 2.21 µM (inactive)
M14
  GI50: 6.89 µM (inactive)
UACC-62
  GI50: 11.7 µM (inactive)
OVCAR-8
  GI50: 4.69 µM (inactive)
UACC-257
  GI50: 7.73 µM (inactive)
HCC 2998
  GI50: 14.9 µM (inactive)
PC-3
  GI50: 14 µM (inactive)
IGROV-1
  GI50: 16.1 µM (inactive)
BT-549
  GI50: 14.9 µM (inactive)
NCI-H460
  GI50: 20.8 µM (inactive)
KM12
  GI50: 18.7 µM (inactive)
SK-OV-3
  GI50: 18.1 µM (inactive)
LOX IMVI
  GI50: 2.67 µM (inactive)
CAKI-1
  GI50: 17.4 µM (inactive)

## Cn1c2ccccc2c(=O)c2c(O)cc3c(c21)C=CC1(CCCC1)O3
CCRF-CEM
  GI50: > 100 µM (inactive)
NCI-H23
  GI50: 68.1 µM (inactive)
SK-MEL-28
  GI50: > 100 µM (inactive)
SF-539
  GI50: 50.5 µM (inactive)
HL-60
  GI50: > 100 µM (inactive)
M14
  GI50: > 100 µM (inactive)
UACC-62
  GI50: > 100 µM (inactive)
OVCAR-8
  GI50: > 100 µM (inactive)
UACC-257
  GI50: > 100 µM (inactive)
HCC 2998
  GI50: > 100 µM (inactive)
PC-3
  GI50: > 100 µM (inactive)
IGROV-1
  GI50: 61.7 µM (inactive)
BT-549
  GI50: > 100 µM (inactive)
NCI-H460
  GI50: > 100 µM (inactive)
KM12
  GI50: > 100 µM (inactive)
SK-OV-3
  GI50: > 100 µM (inactive)
LOX IMVI
  GI50: > 100 µM (inactive)
CAKI-1
  GI50: > 100 µM (inactive)

## CC(C)C(NC(=O)C(C(C)C)N(C)C)C(=O)N(C)C(C(=O)N1CCCC1C(=O)N1CCCC1C(=O)NCc1ccccc1)C(C)C (centres undefined) (ξNMe2Val-V[NMeV]PP-NHBn; configuration not given here)
CCRF-CEM
  GI50: < 0.0001 µM (active)
UO-31
  GI50: 0.0015 µM (active)
NCI-H23
  GI50: < 0.0001 µM (active)
SF-539
  GI50: < 0.01 µM (active)
HL-60
  GI50: < 0.0001 µM (active)
M14
  GI50: < 0.0001 µM (active)
UACC-62
  GI50: < 0.0001 µM (active)
OVCAR-8
  GI50: < 0.0001 µM (active)
UACC-257
  GI50: < 0.0001 µM (active)
HCC 2998
  GI50: < 0.0001 µM (active)
PC-3
  GI50: < 0.0001 µM (active)
IGROV-1
  GI50: < 0.0001 µM (active)
BT-549
  GI50: < 0.0001 µM (active)
NCI-H460
  GI50: < 0.0001 µM (active)
KM12
  GI50: < 0.0001 µM (active)
SK-OV-3
  GI50: 0.000221 µM (active)
LOX IMVI
  GI50: < 0.0001 µM (active)
CAKI-1
  GI50: < 0.0001 µM (active)
